Experimental findings from article PMC2248166, “Quantitative peptide binding motifs for 19 human and mouse MHC class I molecules derived using positional scanning combinatorial peptide libraries” (Immunome Research, 2008) are described below.

Structures are written as SMILES. Where a SMILES comes first, the peptide text is derived from it.

Holding throughout (experiment): biochemical
What all share (format): binding

The target in test [1] is HLA B*0801 (Homo sapiens, UniProt P01889, A93T/A95T/D138N/E176V/E187T/K202T/Q94N/R180D/S35A/V36M/Y33D/Y91F).
Test [2] has as its target HLA B*1501 (Homo sapiens, UniProt P01889, A329T/A93T/A95T/C349S/D201E/D98Y/E187L/E204Q/E69M/E70A/K202T/N87E/Q94N/R155S/R180W/S121R/S35A/S48A/V306I/V36M/Y140S/Y91S).
The target of test [3] is HLA B*1503 (Homo sapiens, UniProt P01889, A329T/A93T/A95T/C349S/D201E/D98Y/E187L/E204Q/K202T/N87E/Q94N/R155S/R180L/S121R/S35A/V306I/V36M/Y140S/Y91S).
Test [4] has as its target HLA A*3001 (Homo sapiens, UniProt P04439, D140H/D185E/E176W/F33S/G80R/H175R/K168Q/R138E/R41S).
Test [5] addresses HLA A*3201 (Homo sapiens, UniProt P04439, A270S/D101S/D185E/E176V/E277Q/F133L/G103R/G107R/G231S/H175R/I121M/I218V/I322F/K168Q/L105A/L300P/L318F/M331R/P208A/P217A/Q94H/R106L/R138Q/S129P/T104I/T323A/T345S/V100E/V321M/V358M).

HLA A*3001, sequence (P04439 25-365 limits assumed, stated change not applied): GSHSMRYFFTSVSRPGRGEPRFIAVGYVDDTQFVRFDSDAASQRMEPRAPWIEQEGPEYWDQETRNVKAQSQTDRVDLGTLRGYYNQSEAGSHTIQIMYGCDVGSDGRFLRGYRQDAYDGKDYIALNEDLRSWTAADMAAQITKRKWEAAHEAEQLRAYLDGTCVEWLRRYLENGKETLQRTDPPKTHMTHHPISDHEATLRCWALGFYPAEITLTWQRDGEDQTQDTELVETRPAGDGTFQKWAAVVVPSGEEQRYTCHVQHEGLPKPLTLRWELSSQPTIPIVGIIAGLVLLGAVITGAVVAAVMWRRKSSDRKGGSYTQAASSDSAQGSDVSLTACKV

As for `CC(C)[C@H](NC(=O)[C@H](Cc1ccccc1)NC(=O)[C@H](CC(=O)O)NC(=O)[C@H](CC(N)=O)NC(=O)[C@H](CCCCN)NC(=O)[C@@H]1CCCN1C(=O)[C@@H](N)Cc1ccccc1)C(=O)N[C@@H](CO)C(=O)N[C@@H](Cc1ccccc1)C(=O)O` [3102.0637] (H-FPKNDFVSF-OH), the IC50 in test [1] came to 16 nM; in test [2], 10 nM; in test [3], 4.2 nM.

As to `CC[C@H](C)[C@H](NC(=O)[C@@H](N)CCCNC(=N)N)C(=O)N[C@@H](CCCNC(=N)N)C(=O)N[C@@H](CCCNC(=N)N)C(=O)N[C@@H](Cc1ccccc1)C(=O)N[C@@H](CCCNC(=N)N)C(=O)N[C@@H](CCCNC(=N)N)C(=O)N1CCC[C@H]1C(=O)N[C@@H](CCSC)C(=O)O` [3102.0681] (H-RIRRFRRPM-OH), the half-inhibitory concentration (IC50) turned out to be 4.4 nM in test [4], 8.9 nM in test [1], 36 nM in test [2] and 30 nM in test [3].

On to `CC[C@H](C)[C@H](NC(=O)[C@H](Cc1c[nH]cn1)NC(=O)[C@H](CS)NC(=O)[C@H](CC(C)C)NC(=O)[C@H](CC(C)C)NC(=O)[C@@H](N)CC(N)=O)C(=O)N[C@@H](Cc1ccc(O)cc1)C(=O)N[C@@H](CO)C(=O)N[C@@H](CC(C)C)C(=O)O` [3102.0692] (H-NLLCHIYSL-OH), for which the 50% inhibitory concentration (IC50) in test [5] was 232 nM; in test [1], 0.31 nM.

For the compound `CSCC[C@H](NC(=O)[C@H](CC(C)C)NC(=O)[C@@H](N)CCSC)C(=O)N[C@@H](CC(N)=O)C(=O)N[C@@H](Cc1c[nH]cn1)C(=O)N[C@H](C(=O)N[C@@H](C)C(=O)N[C@@H](CC(N)=O)C(=O)N[C@@H](Cc1ccccc1)C(=O)O)C(C)C` [3102.0720] (H-MLMNHVANF-OH), the 50% inhibitory concentration (IC50) in test [5] stood at 8.3 nM; in test [1] it was 3.3 nM.

Turning to `CC[C@H](C)[C@H](NC(=O)[C@@H](NC(=O)[C@H](Cc1c[nH]cn1)NC(=O)[C@H](CCCNC(=N)N)NC(=O)[C@H](CC(C)C)NC(=O)[C@@H](NC(=O)[C@H](Cc1ccccc1)NC(=O)[C@H](CCSC)NC(=O)[C@@H](N)CO)[C@@H](C)O)[C@@H](C)CC)C(=O)O` [3102.0752] (H-SMFTLRHII-OH), the concentration for half-maximal inhibition (IC50) in test [5] was 83 nM; in test [1] it was 1.8 nM.

As to `CC[C@H](C)[C@H](NC(=O)[C@H](CCCNC(=N)N)NC(=O)[C@H](Cc1ccc(O)cc1)NC(=O)[C@H](CCSC)NC(=O)[C@H](CO)NC(=O)[C@@H](N)CCCNC(=N)N)C(=O)N1CCC[C@H]1C(=O)N1CCC[C@H]1C(=O)N[C@@H](Cc1ccccc1)C(=O)O` [3102.0766] (H-RSMYRIPPF-OH), the figures for the concentration for half-maximal inhibition (IC50) in test [5] and in test [1] were 0.73 nM and 158 nM, respectively.

For the compound `CC[C@H](C)[C@H](NC(=O)[C@@H](N)Cc1ccccc1)C(=O)N[C@@H](CCCNC(=N)N)C(=O)N[C@@H](Cc1ccc(O)cc1)C(=O)N[C@@H](CCCNC(=N)N)C(=O)N[C@@H](CCSC)C(=O)N[C@@H](Cc1c[nH]cn1)C(=O)N1CCC[C@H]1C(=O)N[C@@H](CCSC)C(=O)O` [3102.0768] (H-FIRYRMHPM-OH), the concentration for half-maximal inhibition (IC50) in test [1] came to 0.21 nM; in test [2], 1.2 nM; in test [3] it was 22 nM.

`CC[C@H](C)[C@H](NC(=O)[C@H](CC(C)C)NC(=O)[C@@H](N)CC(N)=O)C(=O)N[C@H](C(=O)N[C@@H](CC(C)C)C(=O)N[C@@H](C)C(=O)N[C@H](C(=O)N[C@@H](CO)C(=O)N[C@@H](Cc1ccccc1)C(=O)O)C(C)C)[C@@H](C)O` [3102.0798] (H-NLITLAVSF-OH): the IC50 in test [1] was determined as 328 nM; in test [2], 81 nM; in test [3] it was 15 nM.

For the compound `CC(C)C[C@H](NC(=O)[C@H](CCC(=O)O)NC(=O)[C@H](CC(N)=O)NC(=O)[C@H](CCCNC(=N)N)NC(=O)[C@H](CC(=O)O)NC(=O)[C@H](CCCCN)NC(=O)[C@H](CC(C)C)NC(=O)[C@@H](N)CC(C)C)C(=O)N[C@@H](Cc1ccccc1)C(=O)O` [3102.0842] (H-LLKDRNELF-OH), the IC50 in test [1] is 41 nM; in test [2] it was 1.8 nM; in test [3] it was 16 nM.

Take `CC[C@H](C)[C@H](NC(=O)[C@H](CCCNC(=N)N)NC(=O)[C@H](Cc1c[nH]cn1)NC(=O)[C@H](CS)NC(=O)[C@@H](NC(=O)[C@@H](N)CCSC)C(C)C)C(=O)N[C@@H](CC(C)C)C(=O)N[C@H](C(=O)N[C@@H](Cc1ccc(O)cc1)C(=O)O)[C@@H](C)O` [3102.0849] (H-MVCHRILTY-OH): the concentration for half-maximal inhibition (IC50) in test [1] was determined as 220 nM; in test [2] it was 70 nM; in test [3], 28 nM.

Consider `CSCC[C@H](NC(=O)[C@@H](N)CC(C)C)C(=O)N[C@@H](Cc1ccccc1)C(=O)N[C@@H](CCCCN)C(=O)N[C@@H](Cc1c[nH]cn1)C(=O)N[C@@H](CC(C)C)C(=O)N[C@@H](CC(C)C)C(=O)N[C@@H](Cc1c[nH]cn1)C(=O)N1CCC[C@H]1C(=O)O` [3102.0908] (H-LMFKHLLHP-OH), for which the IC50 in test [1] was determined as 1 nM; in test [2] it was 103 nM; in test [3], 26 nM.

`CC[C@H](C)[C@H](NC(=O)[C@@H]1CCCN1C(=O)[C@H](CC(C)C)NC(=O)[C@H](Cc1ccccc1)NC(=O)[C@H](CO)NC(=O)[C@H](CCSC)NC(=O)[C@H](CCCCN)NC(=O)[C@H](CO)NC(=O)[C@@H](N)CCC(=O)O)C(=O)O` [3102.0979] (H-ESKMSFLPI-OH): the IC50 in test [1] came to 1.1 nM; in test [2], 358 nM.

Take `CC[C@H](C)[C@H](NC(=O)[C@H](CCCCN)NC(=O)[C@@H]1CCCN1C(=O)[C@H](CCCNC(=N)N)NC(=O)[C@@H](NC(=O)[C@@H](N)CC(C)C)[C@@H](C)CC)C(=O)N[C@@H](CC(C)C)C(=O)N[C@@H](CO)C(=O)N[C@@H](CCSC)C(=O)O` [3102.0983] (H-LIRPKILSM-OH): the 50% inhibitory concentration (IC50) was 0.55 nM in test [1] and 10 nM in test [2].

With `CC[C@H](C)[C@H](NC(=O)[C@H](CO)NC(=O)[C@@H](N)CCCNC(=N)N)C(=O)N[C@@H](CCCNC(=N)N)C(=O)N[C@@H](CCCCN)C(=O)N[C@@H](Cc1ccccc1)C(=O)N[C@@H](CC(N)=O)C(=O)N[C@H](C(=O)N[C@@H](CCSC)C(=O)O)[C@@H](C)O` [3102.1003] (H-RSIRKFNTM-OH), the IC50 in test [1] came to 17 nM; in test [2], 4.4 nM.

As for `CC[C@H](C)[C@H](NC(=O)[C@@H](NC(=O)[C@H](CO)NC(=O)[C@H](CO)NC(=O)[C@H](CO)NC(=O)[C@H](CCCCN)NC(=O)[C@H](C)NC(=O)[C@@H](NC(=O)[C@@H](N)CC(C)C)[C@@H](C)CC)C(C)C)C(=O)O` [3102.1021] (H-LIAKSSSVI-OH), the 50% inhibitory concentration (IC50) in test [4] was 11 nM; in test [1], 13 nM; in test [2], 23 nM.

With `CC[C@H](C)[C@H](NC(=O)[C@@H](NC(=O)[C@H](CC(C)C)NC(=O)CNC(=O)[C@H](C)NC(=O)[C@H](Cc1ccc(O)cc1)NC(=O)[C@H](CCCCN)NC(=O)[C@H](CC(C)C)NC(=O)[C@@H](N)CC(C)C)[C@@H](C)O)C(=O)O` [3102.1023] (H-LLKYAGLTI-OH), the values for the IC50 in test [1] and in test [2] were 105 nM and 4.5 nM, respectively.

Take `CSCC[C@H](NC(=O)[C@@H](N)CO)C(=O)N[C@@H](CCCCN)C(=O)N[C@H](C(=O)N[C@H](C(=O)N[C@@H](Cc1ccccc1)C(=O)N[C@@H](CCC(N)=O)C(=O)N[C@H](C(=O)N[C@@H](Cc1ccccc1)C(=O)O)C(C)C)C(C)C)[C@@H](C)O` [3102.1083] (H-SMKTVFQVF-OH): the IC50 in test [1] worked out at 179 nM; in test [2] it was 1.6 nM; in test [3] it was 3.8 nM.

`CC[C@H](C)[C@H](NC(=O)[C@H](Cc1ccccc1)NC(=O)[C@H](CCCNC(=N)N)NC(=O)[C@H](CCC(=O)O)NC(=O)[C@@H](NC(=O)[C@H](CCSC)NC(=O)[C@@H](N)Cc1ccc(O)cc1)[C@@H](C)CC)C(=O)N[C@@H](CO)C(=O)N[C@@H](Cc1ccccc1)C(=O)O` [3102.1085] (H-YMIERFISF-OH): the results for the concentration for half-maximal inhibition (IC50) in test [1], in test [2] and in test [3] were 0.35 nM, 0.11 nM and 0.046 nM, respectively.

Regarding `CC(C)[C@H](NC(=O)[C@H](CCCNC(=N)N)NC(=O)[C@@H](N)Cc1ccccc1)C(=O)N[C@H](C(=O)N[C@@H](CCCCN)C(=O)N1CCC[C@H]1C(=O)N[C@@H](CC(N)=O)C(=O)N[C@@H](CO)C(=O)N[C@@H](Cc1ccccc1)C(=O)O)C(C)C` [3102.1127] (H-FRVVKPNSF-OH), the IC50 was 91 nM in test [1] and 108 nM in test [2].

Regarding `CC[C@H](C)[C@H](NC(=O)[C@@H](NC(=O)[C@H](CC(N)=O)NC(=O)[C@H](CCSC)NC(=O)[C@@H](N)CO)[C@@H](C)O)C(=O)N[C@@H](CCCCN)C(=O)N[C@@H](CCC(N)=O)C(=O)N[C@@H](CO)C(=O)N[C@@H](Cc1ccccc1)C(=O)O` [3102.1144] (H-SMNTIKQSF-OH), the values for the half-maximal inhibitory concentration (IC50) in test [5], in test [1] and in test [3] were 293 nM, 450 nM and 17 nM, respectively.

Consider `CSCC[C@H](NC(=O)[C@@H](NC(=O)[C@H](CO)NC(=O)CNC(=O)[C@H](CC(=O)O)NC(=O)[C@@H](NC(=O)[C@@H](NC(=O)[C@H](CCSC)NC(=O)[C@@H](N)Cc1ccc(O)cc1)C(C)C)C(C)C)C(C)C)C(=O)O` [3102.1153] (H-YMVVDGSVM-OH), for which the 50% inhibitory concentration (IC50) in test [1] stood at 390 nM; in test [2] it was 2.5 nM; in test [3], 1 nM.

For orientation: IC50 means the concentration needed to halve the response being measured. High values mean weaker potency in that assay, low ones greater potency in that assay.
